Experimental data published in ChEMBL document CHEMBL4321794, “Discovery and Optimization of 2-Arylquinazolin-4-ones into a Potent and Selective Tankyrase Inhibitor Modulating Wnt Pathway Activity” (J Med Chem, 2019).

What was measured:
[1] = Intrinsic clearance in mouse liver microsomes assessed per mg protein in presence of NADPH by UPLC analysis; type: ADME, Microsome; conditions: read-out: CLH
[2] = biological target: Poly [ADP-ribose] polymerase 1 (Homo sapiens, UniProt P09874); test: Inhibition of recombinant human full-length Myc/His-tagged Parp-1 expressed in baculovirus infected Sf21 insect cells assessed as reduction in auto-PARsylation using activated DNA as substrate incubated for 150 mins in presence of NAD and bio-NAD as co-substrate by TR-FRET assay
[3] = Intrinsic clearance in human liver microsomes assessed per mg protein in presence of NADPH by UPLC analysis; type: ADME, Microsome; conditions: read-out: CLH
[4] = biological target: Voltage-gated inwardly rectifying potassium channel KCNH2 (Homo sapiens, UniProt Q12809); test: Inhibition of human ERG expressed in HEK293 cells at -80 mV holding potential by whole cell patch clamp method; type: cell-based
[5] = biological target: T1, Poly [ADP-ribose] polymerase tankyrase-1 (Homo sapiens, UniProt O95271); design: species or system Sf9
T1 sequence (O95271 whole entry): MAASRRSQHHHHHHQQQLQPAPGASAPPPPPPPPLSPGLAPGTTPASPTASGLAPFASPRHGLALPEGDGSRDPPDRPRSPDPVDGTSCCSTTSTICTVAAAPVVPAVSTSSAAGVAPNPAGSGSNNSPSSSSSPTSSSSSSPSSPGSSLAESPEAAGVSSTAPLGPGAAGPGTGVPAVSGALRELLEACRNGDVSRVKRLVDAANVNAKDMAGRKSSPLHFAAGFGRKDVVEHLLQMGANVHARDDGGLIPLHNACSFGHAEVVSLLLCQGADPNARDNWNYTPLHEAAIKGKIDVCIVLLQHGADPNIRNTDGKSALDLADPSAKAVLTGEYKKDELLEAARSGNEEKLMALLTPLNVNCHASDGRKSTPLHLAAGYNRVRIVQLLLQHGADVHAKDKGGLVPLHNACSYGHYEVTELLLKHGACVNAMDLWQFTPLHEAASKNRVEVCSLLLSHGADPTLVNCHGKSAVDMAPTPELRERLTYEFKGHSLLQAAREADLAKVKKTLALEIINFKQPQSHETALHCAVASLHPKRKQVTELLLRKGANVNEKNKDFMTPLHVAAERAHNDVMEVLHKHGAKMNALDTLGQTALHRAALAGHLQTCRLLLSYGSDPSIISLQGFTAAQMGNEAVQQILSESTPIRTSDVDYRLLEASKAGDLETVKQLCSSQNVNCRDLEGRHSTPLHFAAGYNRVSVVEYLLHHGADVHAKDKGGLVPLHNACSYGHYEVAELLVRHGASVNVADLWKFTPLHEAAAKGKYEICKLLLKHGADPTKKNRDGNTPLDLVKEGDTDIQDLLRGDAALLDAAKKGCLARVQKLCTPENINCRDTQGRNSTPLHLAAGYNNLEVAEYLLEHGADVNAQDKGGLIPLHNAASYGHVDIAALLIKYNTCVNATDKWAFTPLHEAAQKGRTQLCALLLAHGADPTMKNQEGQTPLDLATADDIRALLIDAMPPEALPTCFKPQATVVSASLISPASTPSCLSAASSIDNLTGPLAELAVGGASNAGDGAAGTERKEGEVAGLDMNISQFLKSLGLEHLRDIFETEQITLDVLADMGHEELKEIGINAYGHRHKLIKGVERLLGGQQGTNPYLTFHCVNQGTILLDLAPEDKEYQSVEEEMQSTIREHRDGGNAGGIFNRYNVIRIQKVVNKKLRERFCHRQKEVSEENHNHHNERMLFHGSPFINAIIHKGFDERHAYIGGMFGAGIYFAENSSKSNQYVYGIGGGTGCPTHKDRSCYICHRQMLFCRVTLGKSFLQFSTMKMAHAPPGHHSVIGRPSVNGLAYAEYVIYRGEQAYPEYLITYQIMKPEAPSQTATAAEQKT

[6] = Thermodynamic solubility in phosphate buffer at pH 7.4 at 2 mg incubated under shaking condition for 6 hrs followed by rechecking and readjusting pH to 7.4 and further incubated for 18 hrs by HPLC/UV detection method; type: physicochemical; conditions: read-out: Therm_solubility

Chain of Poly [ADP-ribose] polymerase 1 (P09874 whole entry): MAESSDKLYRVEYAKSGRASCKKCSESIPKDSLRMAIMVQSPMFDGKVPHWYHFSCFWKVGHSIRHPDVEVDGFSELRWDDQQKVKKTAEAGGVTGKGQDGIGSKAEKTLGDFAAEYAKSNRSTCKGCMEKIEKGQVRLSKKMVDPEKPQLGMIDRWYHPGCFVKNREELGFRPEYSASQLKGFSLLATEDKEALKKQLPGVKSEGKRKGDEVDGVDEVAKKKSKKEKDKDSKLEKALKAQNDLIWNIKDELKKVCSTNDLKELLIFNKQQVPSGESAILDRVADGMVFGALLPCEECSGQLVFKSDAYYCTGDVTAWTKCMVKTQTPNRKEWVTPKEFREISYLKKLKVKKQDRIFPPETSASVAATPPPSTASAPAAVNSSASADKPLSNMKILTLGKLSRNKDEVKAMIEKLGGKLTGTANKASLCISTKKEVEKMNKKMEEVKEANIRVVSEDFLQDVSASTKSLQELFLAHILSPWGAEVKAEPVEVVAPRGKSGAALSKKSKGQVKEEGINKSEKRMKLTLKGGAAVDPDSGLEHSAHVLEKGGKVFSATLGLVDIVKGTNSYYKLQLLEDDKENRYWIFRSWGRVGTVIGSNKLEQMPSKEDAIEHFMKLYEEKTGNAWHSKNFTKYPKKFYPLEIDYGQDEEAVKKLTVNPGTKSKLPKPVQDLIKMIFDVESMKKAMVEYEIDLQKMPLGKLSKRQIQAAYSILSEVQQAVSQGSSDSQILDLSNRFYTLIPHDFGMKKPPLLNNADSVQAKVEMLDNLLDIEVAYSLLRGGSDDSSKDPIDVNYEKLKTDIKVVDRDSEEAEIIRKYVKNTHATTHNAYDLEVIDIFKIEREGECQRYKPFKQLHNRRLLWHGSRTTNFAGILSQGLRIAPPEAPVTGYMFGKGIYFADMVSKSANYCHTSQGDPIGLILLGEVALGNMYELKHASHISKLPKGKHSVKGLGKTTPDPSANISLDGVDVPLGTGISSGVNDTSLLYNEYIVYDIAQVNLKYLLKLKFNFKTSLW
Chain of Voltage-gated inwardly rectifying potassium channel KCNH2 (Q12809 whole entry): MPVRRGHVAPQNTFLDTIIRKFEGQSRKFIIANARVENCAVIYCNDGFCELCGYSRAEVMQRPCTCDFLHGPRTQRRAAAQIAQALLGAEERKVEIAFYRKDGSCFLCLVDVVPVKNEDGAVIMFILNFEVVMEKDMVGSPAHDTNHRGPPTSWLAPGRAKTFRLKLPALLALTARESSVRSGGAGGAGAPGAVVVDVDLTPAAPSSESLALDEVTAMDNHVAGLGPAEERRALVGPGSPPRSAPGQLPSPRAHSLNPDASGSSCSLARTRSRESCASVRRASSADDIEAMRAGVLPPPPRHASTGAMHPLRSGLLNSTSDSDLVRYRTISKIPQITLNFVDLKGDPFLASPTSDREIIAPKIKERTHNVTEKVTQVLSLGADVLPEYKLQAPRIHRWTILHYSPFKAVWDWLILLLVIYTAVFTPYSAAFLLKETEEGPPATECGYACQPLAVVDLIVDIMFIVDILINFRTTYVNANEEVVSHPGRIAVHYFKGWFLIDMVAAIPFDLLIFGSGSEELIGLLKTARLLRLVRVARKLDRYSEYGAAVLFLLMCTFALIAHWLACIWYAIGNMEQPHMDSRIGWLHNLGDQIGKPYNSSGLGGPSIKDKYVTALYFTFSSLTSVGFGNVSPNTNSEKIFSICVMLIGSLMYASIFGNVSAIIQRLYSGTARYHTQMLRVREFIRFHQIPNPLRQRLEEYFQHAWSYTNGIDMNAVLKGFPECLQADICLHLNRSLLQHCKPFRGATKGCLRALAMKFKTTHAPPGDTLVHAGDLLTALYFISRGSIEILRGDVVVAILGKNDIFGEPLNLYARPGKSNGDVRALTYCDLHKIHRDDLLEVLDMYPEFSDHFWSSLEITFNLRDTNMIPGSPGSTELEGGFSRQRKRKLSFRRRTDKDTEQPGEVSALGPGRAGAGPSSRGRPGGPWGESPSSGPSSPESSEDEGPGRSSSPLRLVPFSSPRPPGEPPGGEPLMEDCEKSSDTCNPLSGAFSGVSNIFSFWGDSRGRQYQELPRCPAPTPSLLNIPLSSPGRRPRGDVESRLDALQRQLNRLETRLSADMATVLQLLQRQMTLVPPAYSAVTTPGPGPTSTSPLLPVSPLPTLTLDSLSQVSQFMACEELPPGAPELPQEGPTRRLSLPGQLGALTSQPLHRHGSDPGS

Q: What does the source list for `Cc1cc(F)cc2c(=O)[nH]c(-c3ccc(C4CCNCC4)cc3)nc12.Cl`?
A: microsomal CLint [1]: 77 µL/min/mg; IC50 [2]: 390 nM; microsomal CLint [3]: < 10 µL/min/mg; Ki [4]: 6800 nM; IC50 [5]: 1.3 nM; solubility thermodynamic at 24 h [6]: 44 µg/mL
